Tested on: platelets
Test: Platelet preservation in platelet rich plasma with 1% citrate (lysine citrate)
Format: cell-based
Conditions: PRP 1% citrate, room temperature
Method: In the experiment anticoagulated blood (0.4% citrate by weight) was centrifuged to produce platelet Rich Plasma (PRP). To test samples of PRP citric acid stock solution containing sufficient lysine to bring the solution pH to 7.0 was added to increase the citrate concentration to 1% by weight. Following this addition the pH of the mixture was 6.7. It will be apparent to one of skill in the art that the precise ratio of basic amino acid to citrate can be altered to adjust the pH of the either the stock solution or the final blood mixture. One sample of original PRP was used as the Normal Control, and one sample of the lysine citrate PRP was used as the Citrate Control. One sample of original PRP was inoculated with cultured Staphylococcus epidermidis to a final concentration of about 10 cfu/ml—this formed the Spiked Normal. […] The samples were incubated at room temperature for five days. Each day the number of platelets in each sample was counted; each sample was also tested for LDH (lactate dehydrogenase) and for the ability to induce a clot. Following the tests an aliquot of each sample was subcultured on nutrient agar and incubated under growth conditions.

[1] = Day 1, spiked with Staphylococcus epidermidis about 10 cfu/ml
[2] = Day 2, spiked with Staphylococcus epidermidis about 10 cfu/ml
[3] = Day 3, spiked with Staphylococcus epidermidis about 10 cfu/ml
[4] = Day 4, spiked with Staphylococcus epidermidis about 10 cfu/ml
[5] = Day 5, spiked with Staphylococcus epidermidis about 10 cfu/ml

NCCCC[C@H](N)C(=O)O.O=C(O)CC(O)(CC(=O)O)C(=O)O [Lysine Citrate, lysine citrate]
Clot time [1]: 29 s
Count (platelets) [1]: 2.99 × 10^5 per μl
LDH [1]: 131 IU/L
Clot time (Day 1, unspiked): 35 s
Count (platelets) (Day 1, unspiked): 3.2 × 10^5 per μl
LDH (Day 1, unspiked): 133 IU/L
Clot time [2]: 32 s
Count (platelets) [2]: 3.0 × 10^5 per μl
LDH [2]: 130 IU/L
Clot time (Day 2, unspiked): 30 s
Count (platelets) (Day 2, unspiked): 3.1 × 10^5 per μl
LDH (Day 2, unspiked): 133 IU/L
Clot time [3]: 30 s
Count (platelets) [3]: 3.0 × 10^5 per μl
LDH [3]: 133 IU/L
Clot time (Day 3, unspiked): 32 s
Count (platelets) (Day 3, unspiked): 3.3 × 10^5 per μl
LDH (Day 3, unspiked): 134 IU/L
Clot time [4]: 30 s
Count (platelets) [4]: 3.2 × 10^5 per μl
LDH [4]: 131 IU/L
Clot time (Day 4, unspiked): 35 s
Count (platelets) (Day 4, unspiked): 3.5 × 10^5 per μl
LDH (Day 4, unspiked): 133 IU/L
Clotting time [5]: 32 s
Count (platelets) [5]: 3.0 × 10^5 per μl
LDH [5]: 131 IU/L
Clotting time (Day 5, unspiked): 33 s
Count (platelets) (Day 5, unspiked): 3.1 × 10^5 per μl
LDH (Day 5, unspiked): 135 IU/L

— patent US20090123907A1 (priority 2004, published 2009)
